In ChEMBL document CHEMBL5441381, “ASAP - In vitro antiviral effect” (2024):
pEC50: −log10 of the molar value. Values joined by “and” are separate entries in the source; they are usually repeats but may differ in a detail not shown here. Equal entries are not always repeated.

Assays:
[1] = test system: Middle East respiratory syndrome-related coronavirus; assay: microbe, parasite or virus in culture; type: functional, organism-based, Chlorocebus sabaeus, VeroE6/TMPRSS2
SARS-CoV-2 [2] = assay: (§1) Functional immunofluorescence assay to measure dose dependent changes in antiviral-drug inhibitory efficacy against hCoV-19/USA-WA1/2020 in HeLa-ACE2 cells which are seeded prior to drug treatment, then infected with hCoV-19/USA-WA1/2020. Cells are fixed with 10 % formaldehyde, washed with PBS, permeabilized with permeabilization buffer, then washed with wash buffer. The cells are incubated with nucleoprotein primary antibody IC7C7. Following primary staining, cells are washed with wash buffer and incubated in a solution of with Alexa fluor 488 and DAPI. Infected and uninfected cells are visualized and analyzed by Gen5 software. The assay has been performed by Icahn School of Medicine at Mount Sinai.; type: organism-based, Homo sapiens
SARS-CoV-2 [3] = assay: as §1, with “iPSC-Pneumocyte” for “HeLa-ACE2”, “to” for “to drug”; type: organism-based, Homo sapiens
[4] = test system: Middle East respiratory syndrome-related coronavirus; assay: microbe, parasite or virus in culture; type: functional, organism-based, Chlorocebus sabaeus; details: Vero 76
[5] = Middle East respiratory syndrome-related coronavirus, VeroE6/TMPRSS2
[6] = Severe acute respiratory syndrome coronavirus 2, HeLa-ACE2
[7] = Severe acute respiratory syndrome coronavirus 2, Pneumocyte

Compound	pEC50 [1, 5]	EC90 [1, 5] [µM]	pEC50 (SARS-CoV-2 [2]; [6])	pEC50 (SARS-CoV-2 [2]; hela-ace2)	pEC50 (SARS-CoV-2 [3]; [7])	also measured
C[C@H](C(=O)O)[C@@H](NC(=O)c1ncnc2[nH]ccc12)c1ccc(Br)cc1	< 5.30	> 5	< 4.70	–	–	EC90 (SARS-CoV-2 [2]; Severe acute respiratory syndrome coronavirus 2, HeLa-ACE2, Baseline response 0 %, Hill slope -0.083, Maximum measured 104.611 %, Maximum response 100 %, Minimum measured 71.809 %, R squared 0.037): > 20 µM; EC90 (SARS-CoV-2 [2]; Severe acute respiratory syndrome coronavirus 2, HeLa-ACE2, Maximum measured 2742.07 %, Minimum measured 91.919 %): > 20 µM
CC(C)[C@H](Nc1ncnc2[nH]c(-c3cnn(C)c3C#N)cc12)c1ccc2c(n1)OCCO2	< 5.30	> 5	6.09	6.29	–	EC90 (SARS-CoV-2 [2]; Baseline response 0 %, EC90 CI (lower) 0.11 uM, EC90 CI (upper) 0.158 uM, Hill slope -1.629, Maximum measured 105.242 %, Maximum response 100 %, Minimum measured 1.508 %, R squared 0.979): 1.96 µM; EC90 (SARS-CoV-2 [2]; Severe acute respiratory syndrome coronavirus 2, HeLa-ACE2, Baseline response 0 %, EC90 CI (lower) 0.09 uM, EC90 CI (upper) 0.442 uM, Hill slope -1.557, Maximum measured 125.33 %, Maximum response 100 %, Minimum measured 4.425 %, R squared 0.913): 3.36 µM
CNCc1cc(-c2cc3c(N[C@@H](c4ccc5c(c4)S(=O)(=O)CCC5)C(C)C)ncnc3[nH]2)co1	< 5.30	> 5	< 4.70	4.93	5.48	EC90 (SARS-CoV-2 [3]; Severe acute respiratory syndrome coronavirus 2, Pneumocyte, Baseline response 0 %, Hill slope -0.579, Maximum measured 92.989 %, Maximum response 100 %, Minimum measured 2.106 %, R squared 0.758): > 50 µM; EC90 (SARS-CoV-2 [2]; Severe acute respiratory syndrome coronavirus 2, HeLa-ACE2, Baseline response 0 %, Hill slope -1.471, Maximum measured 134.366 %, Maximum response 100 %, Minimum measured 28.123 %, R squared 0.287): > 20 µM; EC90 (SARS-CoV-2 [2]; Severe acute respiratory syndrome coronavirus 2, HeLa-ACE2, Baseline response 0 %, Hill slope -3.107, Maximum measured 113.346 %, Maximum response 100 %, Minimum measured 56.361 %, R squared 0.692): > 20 µM
CC(C)[C@H](Nc1ncnc2[nH]ccc12)c1ccc2c(c1)S(=O)(=O)CCC2	–	–	< 4.70	–	–	EC90 [1]: > 20 µM; pEC50 ([1]; veroe6/tmprss2): 5.62 and < 4.70 and < 5.30; EC90 (SARS-CoV-2 [2]; Severe acute respiratory syndrome coronavirus 2, HeLa-ACE2, Maximum measured 129.029 %, Minimum measured 103.942 %): > 20 µM; EC90 (SARS-CoV-2 [2]; Severe acute respiratory syndrome coronavirus 2, HeLa-ACE2, Maximum measured 158.705 %, Minimum measured 84.767 %): > 20 µM
CNC(=O)c1c[nH]c2ncnc(N[C@H](c3ccc4c(c3)S(=O)(=O)CCC4)C(C)C)c12	–	–	< 4.70	–	5.17	EC90 (SARS-CoV-2 [3]; Severe acute respiratory syndrome coronavirus 2, Pneumocyte, Baseline response 0 %, Hill slope -0.412, Maximum measured 88.736 %, Maximum response 100 %, Minimum measured 31.934 %, R squared 0.862): > 50 µM; pEC50 [4]: < 4.49; EC90 (SARS-CoV-2 [2]; Severe acute respiratory syndrome coronavirus 2, HeLa-ACE2, Baseline response 0 %, Hill slope -10.584, Maximum measured 109.331 %, Maximum response 100 %, Minimum measured 66.391 %, R squared 0.561): > 20 µM
Cn1ncc(-c2cc3c(N[C@@H](c4ccc5c(n4)OCCO5)C(C)(C)C)ncnc3[nH]2)c1C#N	< 5.30	> 5	5.83	5.80	–	EC90 (SARS-CoV-2 [2]; Severe acute respiratory syndrome coronavirus 2, HeLa-ACE2, Baseline response 0 %, Hill slope -0.781, Maximum measured 101.751 %, Maximum response 100 %, Minimum measured 4.671 %, R squared 0.23): > 20 µM; EC90 (SARS-CoV-2 [2]; Severe acute respiratory syndrome coronavirus 2, HeLa-ACE2, Baseline response 0 %, Hill slope -0.984, Maximum measured 108.122 %, Maximum response 100 %, Minimum measured 8.006 %, R squared 0.973): > 10 µM
CC(C)[C@@H](Nc1ncnc2[nH]c(C(=O)N[C@@H]3CCN(C)C3)cc12)c1ccc2c(c1)S(=O)(=O)CCC2	< 5.30	> 5	< 4.70	–	< 4.30	EC90 (SARS-CoV-2 [3]; Severe acute respiratory syndrome coronavirus 2, Pneumocyte, Baseline response 0 %, Hill slope -0.484, Maximum measured 101.646 %, Maximum response 100 %, Minimum measured 52.305 %, R squared 0.601): > 50 µM; EC90 (SARS-CoV-2 [2]; Severe acute respiratory syndrome coronavirus 2, HeLa-ACE2, Baseline response 0 %, Hill slope 0.166, Maximum measured 108.327 %, Maximum response 100 %, Minimum measured 87.557 %, R squared 0.011): > 20 µM; EC90 (SARS-CoV-2 [2]; Severe acute respiratory syndrome coronavirus 2, HeLa-ACE2, Baseline response 0 %, Hill slope -0.788, Maximum measured 109.068 %, Maximum response 100 %, Minimum measured 93.8 %, R squared 0.114): > 20 µM
COc1ccc([C@H](Cc2nnn[nH]2)NC(=O)c2ncnc3[nH]ccc23)cc1	< 5.30	> 5	< 4.70	–	–	EC90 (SARS-CoV-2 [2]; Severe acute respiratory syndrome coronavirus 2, HeLa-ACE2, Baseline response 0 %, Hill slope -0.286, Maximum measured 116.588 %, Maximum response 100 %, Minimum measured 75.952 %, R squared 0.436): > 20 µM; EC90 (SARS-CoV-2 [2]; Severe acute respiratory syndrome coronavirus 2, HeLa-ACE2, Baseline response 0 %, Hill slope -1.346, Maximum measured 102.013 %, Maximum response 100 %, Minimum measured 88.847 %, R squared 0.139): > 20 µM
Cc1nn(C)cc1-c1cc2c(N[C@H](c3ccc4c(c3)S(=O)(=O)CCC4)C(C)C)ncnc2[nH]1	< 5.30	> 5	< 4.70	–	–	EC90 (SARS-CoV-2 [2]; Severe acute respiratory syndrome coronavirus 2, HeLa-ACE2, Baseline response 0 %, Hill slope -2.191, Maximum measured 111.189 %, Maximum response 100 %, Minimum measured 56.402 %, R squared 0.73): > 20 µM; EC90 (SARS-CoV-2 [2]; Severe acute respiratory syndrome coronavirus 2, HeLa-ACE2, Baseline response 0 %, Hill slope -5.449, Maximum measured 120.747 %, Maximum response 100 %, Minimum measured 82.491 %, R squared 0.099): > 20 µM
CC(C)[C@@H](Nc1ncnc2[nH]c(-c3cnn(C)c3C#N)cc12)c1ccc2c(n1)OCCO2	< 5.30	> 5	–	–	4.89	EC90 (SARS-CoV-2 [3]; Severe acute respiratory syndrome coronavirus 2, Pneumocyte, Baseline response 0 %, EC90 CI (lower) 0 uM, EC90 CI (upper) 0 uM, Hill slope -10.753, Maximum measured 116.418 %, Maximum response 100 %, Minimum measured 5.314 %, R squared 0.553): 15.6 µM; EC90 (SARS-CoV-2 [2]; Baseline response 0 %, EC90 CI (lower) 0.252 uM, EC90 CI (upper) 0.378 uM, Hill slope -1.375, Maximum measured 105.062 %, Maximum response 100 %, Minimum measured 1.471 %, R squared 0.975): 7.55 µM; EC90 (SARS-CoV-2 [2]; Baseline response 0 %, EC90 CI (lower) 1.033 uM, EC90 CI (upper) 2.755 uM, Hill slope -2.587, Maximum measured 119.294 %, Maximum response 100 %, Minimum measured 1.653 %, R squared 0.93): 9.22 µM; EC90 (SARS-CoV-2 [2]; Severe acute respiratory syndrome coronavirus 2, HeLa-ACE2, Baseline response 0 %, Hill slope -24.486, Maximum measured 143.7 %, Maximum response 100 %, Minimum measured 4.604 %, R squared 0.738): 6.44 µM; EC90 (SARS-CoV-2 [2]; Severe acute respiratory syndrome coronavirus 2, HeLa-ACE2, Baseline response 0 %, EC90 CI (lower) 1.926 uM, EC90 CI (upper) 3.068 uM, Hill slope -3.008, Maximum measured 101.777 %, Maximum response 100 %, Minimum measured 4.949 %, R squared 0.988): 10.5 µM
CC(C)[C@@H](Nc1ncnc2[nH]ccc12)c1ccc2c(c1)S(=O)(=O)CCC2	–	–	–	< 4.30	< 4.30	EC90 (SARS-CoV-2 [3]; Severe acute respiratory syndrome coronavirus 2, Pneumocyte, Baseline response 0 %, Hill slope -1.893, Maximum measured 187.741 %, Maximum response 100 %, Minimum measured 35.01 %, R squared 0.158): > 50 µM; EC90 (SARS-CoV-2 [3]; Severe acute respiratory syndrome coronavirus 2, Pneumocyte, Maximum measured 138.005 %, Minimum measured 85.609 %): > 50 µM; pEC50 (SARS-CoV-2 [3]; pneumocyte): 4.52; EC90 (SARS-CoV-2 [2]; Severe acute respiratory syndrome coronavirus 2, HeLa-ACE2, Baseline response 0 %, Hill slope -1.838, Maximum measured 112.988 %, Maximum response 100 %, Minimum measured 76.031 %, R squared 0.586): > 50 µM; EC90 (SARS-CoV-2 [2]; Severe acute respiratory syndrome coronavirus 2, HeLa-ACE2, Baseline response 0 %, Hill slope -2.172, Maximum measured 117.108 %, Maximum response 100 %, Minimum measured 66.698 %, R squared 0.616): > 20 µM
CC(C)[C@@H](Nc1ncnc2[nH]c(-c3cnn(CC(N)=O)c3)cc12)c1ccc2c(n1)OCCO2	–	–	< 4.70	–	< 4.30	EC90 (SARS-CoV-2 [3]; Severe acute respiratory syndrome coronavirus 2, Pneumocyte, Baseline response 0 %, Hill slope -0.097, Maximum measured 94.962 %, Maximum response 100 %, Minimum measured 56.467 %, R squared 0.078): > 50 µM; EC90 (SARS-CoV-2 [2]; Severe acute respiratory syndrome coronavirus 2, HeLa-ACE2, Maximum measured 122.738 %, Minimum measured 101.22 %): > 20 µM
CNC(=O)Cn1cc(-c2cc3c(N[C@@H](c4ccc5c(c4)S(=O)(=O)CCC5)C(C)C)ncnc3[nH]2)cn1	< 5.30	> 5	< 4.70	–	< 4.30	EC90 (SARS-CoV-2 [3]; Severe acute respiratory syndrome coronavirus 2, Pneumocyte, Baseline response 0 %, Hill slope -7.964, Maximum measured 130.776 %, Maximum response 100 %, Minimum measured 73.915 %, R squared 0.151): > 50 µM; EC90 (SARS-CoV-2 [2]; Severe acute respiratory syndrome coronavirus 2, HeLa-ACE2, Baseline response 0 %, Hill slope 1.327, Maximum measured 117.537 %, Maximum response 100 %, Minimum measured 90.244 %, R squared 0.066): > 20 µM; EC90 (SARS-CoV-2 [2]; Severe acute respiratory syndrome coronavirus 2, HeLa-ACE2, Maximum measured 116.513 %, Minimum measured 98.017 %): > 20 µM
